The values below come from US20140378378A1, “ERYTHROPOIETIN-DERIVED PEPTIDE AND USE THEREFOR” (priority 2011, published 2014).

For test [1], the system named is cardiomyocytes. The test can be described thus: Cell survival of cardiomyocytes, MTT assay, 72 hours in PBS free of serum and nutrients, hypoxic condition. Type of test: cell-based, Wister rat. The settings on record: 0 nM = 100%. On the procedure:
An 8 weeks old Wister rat was injected with ketamine and pentobarbital to quickly kill the […], and the heart was quickly separated from the mouse. An aorta was used to perfuse with Ca free Krebs-Henseleit buffer (KHB) solution, which was pre-heated to a temperature of about 34° C. to about 37° C., in heart direction. Thereafter, the KHB solution was switched to Hank's balanced salt solution (HBSS:GIBCO, Grand Island, N.Y.) containing 0.15% class II collagenase (Cooper Biomedical, Malvern, Pa.) and then perfused for about 30 to about 40 minutes. Thereafter, the product obtained therefrom was washed twice with a cell culture medium (Dulbecco's modified Eagle's medium, DMEM). Ventricles and atria were separated therefrom, ventricular tissues were thoroughly chopped and then stirred thoroughly for about 5 minutes in a shaker filled with cell culture medium (DMEM) containing class II collagenase that was pre-heated to a temperature of about 34° C. to about 37° C. Connective tissues that were not dissolved were filtered and a collagenase-containing solution was washed twice with the cell culture medium (DMEM). The product obtained therefrom was gently centrifuged at a speed of 10 g for 2 minutes, a supernatant obtained therefrom was separated and removed, and cell components were washed three times with a cell culture medium (DMEM) solution containing 1% fetal bovine serum (FBS; Sigma Chemical, St. Louis, Mo.). Thereafter, the cells obtained therefrom were stabilized in a cell culture medium (DMEM), 10% FBS, 10 mM N-2-hydroxyethylpiperazine-N′-2-ethanesulfonic acid (HEPES, GIBCO Laboratories, Grand Island, N.Y.), 2 mM L-glutamine, penicilin-stereptomycin (100 IU/mL, GIBCO) for 60 minutes.
Thereafter, the cells were divided in a 6-well plate at a density of 20×10^3 cells/cm^2 and then bromodeoxyuridine (BrdU, 10 uM, Sigma-Aldrich) was added to the cell culture medium over 3 days to prevent the proliferation of fibroblasts and progenitor cells (Lokuta et al, 1994; Miragoli et al., 2006). The cells were cultured in an incubator under conditions of 95% of O2, 5% of CO2, and a temperature of 37° C. for the next experiment.
Cells were seeded in a 96-well plate at a density of 2×10^4 cells/well and 200 ul for each well. In this regard, cell confluence was set at about 70% to about 80%. After 24 hours, when the cells have been stabilized, a 26 gauge or 28 gauge needle was used to remove a preexisting medium from the wells. 200 ul of PBS free of serum and nutrients was added to each well, the wells were divided into erythropoietin (EPO) treatment groups and MKX-2 treatment groups, which were further divided into experimental groups according to concentrations of 0 nM, 0.1 nM, 1 nM, 10 nM, 100 nM, and 1000 nM and then treated with a drug for 72 hours in a hypoxic condition, and then the cells were subjected to an MTT assay to compare cell survival rates. The EPO used was an Eporon injection (Dong-A Pharmaceuticals, Korea). All experimental groups for each concentration included 7 wells.
After a predetermined treatment time, 3-[4,5-dimethylthiazol-2-yl]-2,5-diphenyl tetrazolium bromide (MIT, Sigma, M2128) that was dissolved in a phosphate buffered saline (PBS) and then sterilization filtered by using a membrane filter having a thickness of 0.22 um was added to each well in an amount of 100 ul at a concentration of 1 mg/ml. In this regard, an MTT reagent was used after wrapping the MTT reagent with a foil sheet to block from light. […]
For orientation: Tetrazolium assays rely on reduction of a dye to a coloured formazan, in cell work by metabolically active cells.

Test [2] concerns cerebral infarction induced Sprague-Dawley rat models. The test can be described thus: Cerebral infarction animal experiment: middle cerebral artery blockage/reperfusion, infarct volume by TTC dye. The class given is in vivo. The settings on record: 3000 IU/kg EPO injected right after reperfusion, measured after 24 hours. From the text:
In the present experiment, Spague-Dawley (SD) rats weighing about 280 g to about 330 g were used, which were purchased from Koatech Inc. (Seoul, Korea). The number of rats used was 39, wherein 13 of them were used as a control group and another 26 were divided into 13 in a MKX-2 treatment group and 13 in an EPO treatment group.
To induce cerebral infarction, a method of temporarily blocking a left middle cerebral artery and then reperfusing the same was used, and an intraluminal filament technique, which was modified from the Koizumi method was used. Then, each SD rat was anesthetized with a mixture gas of 70% nitrous oxide and 30% oxygen along with isoflurane (3% for induction and 2% for surgical procedure). During the surgery, an excision was made slightly leftwards from the center of the neck and the left common carotid artery was carefully separated without damaging surrounding vagus nerves. […]
The cerebral infarction area was measured by an image analyzer with LeicaQwin program (Leica Microsystem Image Solution Ltd., Cambridge, England) and a volume (mm^3) was calculated as a sum of infarct volumes (=infarct area of a slice×thickness) of the slices, and then an average and a standard deviation were calculated for each experimental group. […]

Take “EPO: erythropoietin; the EPO used was an Eporon injection (Dong-A Pharmaceuticals, Korea)”: the “cell survival rate compared with 0 nM” value in test [1] (0.1 nM) is “not substantially different”. Also, the “cell survival rate compared with the initial condition” value in test [1] (1 nM) was “substantially decreased”. Moreover, the results for the cell survival rate in test [1] (10 nM), in test [1] (100 nM) and in test [1] (1000 nM) were 94.52 ± 4.36%, 102.64 ± 2.69% and 106.97 ± 1.99%, respectively. For the same substance, in test [2], the “volume of cerebral infarction” value came out at 246.27 ± 37.52 mm^3.
